Source: article PMC5218480 (PLoS ONE, 2017)

System: MV-4-11 cells
Test: Gene expression microarray analysis (Affymetrix PrimeView) and GSEA
Type: cell-based, human
Set-up: RFU PODN (11730768_x_at) / Fold change /veh PODN (11730768_x_at) / RFU LINC00158 (11744669_a_at) / Fold change /veh LINC00158 (11744669_a_at) / RFU DUSP10 (11751237_a_at) / Fold change /veh DUSP10 (11751237_a_at) / RFU ID3 (11757404_x_at) / Fold change /veh ID3 (11757404_x_at) / RFU PLEKHG5 (11737974_s_at) / Fold change /veh PLEKHG5 (11737974_s_at) / RFU LRRC4B (11730491_at) / Fold change /veh LRRC4B (11730491_at) / RFU GIMAP4 (11747438_a_at) / Fold change /veh GIMAP4 (11747438_a_at) / RFU KRT8 (11758183_x_at) / Fold change /veh KRT8 (11758183_x_at) / RFU CNN1 (11734310_a_at) / Fold change /veh CNN1 (11734310_a_at) / RFU VPS37D (11726825_at) / Fold change /veh VPS37D (11726825_at) / RFU C10orf10 (11716522_x_at) / Fold change /veh C10orf10 (11716522_x_at) / RFU KIR2DL2 /// KIR2DL4 /// KIR2DL5A /// KIR2DL5B /// KIR2DS1 /// KIR2DS2 /// KIR2DS3 /// KIR2DS4 /// KIR3DL3 /// KIR3DL3 /// KIR3DS1 (11738374_at) / Fold change /veh KIR2DL2 /// KIR2DL4 /// KIR2DL5A /// KIR2DL5B /// KIR2DS1 /// KIR2DS2 /// KIR2DS3 /// KIR2DS4 /// KIR3DL3 /// KIR3DL3 /// KIR3DS1 (11738374_at) / RFU C1QL1 (11718748_at) / Fold change /veh C1QL1 (11718748_at) / RFU TMPRSS4 (11747572_a_at) / Fold change /veh TMPRSS4 (11747572_a_at) / RFU HAMP (11756126_x_at) / Fold change /veh HAMP (11756126_x_at) / RFU RNFT2 (11725882_a_at) / Fold change /veh RNFT2 (11725882_a_at) / RFU NR4A2 (11747474_a_at) / Fold change /veh NR4A2 (11747474_a_at) / RFU ABCC12 (11746883_a_at) / Fold change /veh ABCC12 (11746883_a_at) / RFU TMEM136 (11760407_x_at) / Fold change /veh TMEM136 (11760407_x_at) / RFU CLDN22 /// WWC2 (11732394_at) / Fold change /veh CLDN22 /// WWC2 (11732394_at) / RFU HLA-DPB1 (11760878_x_at) / Fold change /veh HLA-DPB1 (11760878_x_at) / RFU SPINT1 (11716480_a_at) / Fold change /veh SPINT1 (11716480_a_at) / RFU GAP43 (11754022_s_at) / Fold change /veh GAP43 (11754022_s_at) / RFU A4GNT (11735810_at) / Fold change /veh A4GNT (11735810_at) / RFU PRB3 (11715151_x_at) / Fold change /veh PRB3 (11715151_x_at) / RFU TUBB4B (11761932_at) / Fold change /veh TUBB4B (11761932_at) / RFU CAPN14 (11732068_a_at) / Fold change /veh CAPN14 (11732068_a_at) / RFU TMCC2 (11721928_a_at) / Fold change /veh TMCC2 (11721928_a_at) / RFU IRGQ (11745062_a_at) / Fold change /veh IRGQ (11745062_a_at) / RFU FAM174B (11720279_a_at) / Fold change /veh FAM174B (11720279_a_at) / RFU TMPRSS4 (11748680_a_at) / Fold change /veh TMPRSS4 (11748680_a_at) / RFU FAM212B (11763350_a_at) / Fold change /veh FAM212B (11763350_a_at) / RFU PLEKHG5 (11743358_a_at) / Fold change /veh PLEKHG5 (11743358_a_at) / RFU ZSCAN30 (11745921_a_at) / Fold change /veh ZSCAN30 (11745921_a_at) / RFU CMKLR1 (11741424_a_at) / Fold change /veh CMKLR1 (11741424_a_at) / RFU LOC101060620 /// MAPK8IP1 (11723275_at) / Fold change /veh LOC101060620 /// MAPK8IP1 (11723275_at) / RFU SPTSSB (11747773_x_at) / Fold change /veh SPTSSB (11747773_x_at) / RFU PRSS12 (11739890_at) / Fold change /veh PRSS12 (11739890_at) / RFU BIN1 (11741810_x_at) / Fold change /veh BIN1 (11741810_x_at) / RFU WNT11 (11732464_a_at) / Fold change /veh WNT11 (11732464_a_at) / RFU C10orf10 (11716521_a_at) / Fold change /veh C10orf10 (11716521_a_at) / RFU C5orf56 (11738089_at) / Fold change /veh C5orf56 (11738089_at) / RFU CYB561 (11721691_x_at) / Fold change /veh CYB561 (11721691_x_at) / RFU ANKRD19P (11752326_a_at) / Fold change /veh ANKRD19P (11752326_a_at) / RFU OR2T12 /// OR2T33 /// OR2T8 (11738714_s_at) / Fold change /veh OR2T12 /// OR2T33 /// OR2T8 (11738714_s_at) / RFU VCAN (11748164_a_at) / Fold change /veh VCAN (11748164_a_at) / RFU JSRP1 (11732532_at) / Fold change /veh JSRP1 (11732532_at) / RFU KRTAP10-11 (11738290_x_at) / Fold change /veh KRTAP10-11 (11738290_x_at) / RFU MYO3A (11730013_a_at) / Fold change /veh MYO3A (11730013_a_at) / RFU EBF3 (11725865_a_at) / Fold change /veh EBF3 (11725865_a_at) / RFU CAMK2N1 (11719241_x_at) / Fold change /veh CAMK2N1 (11719241_x_at) / RFU C5orf56 (11738088_a_at) / Fold change /veh C5orf56 (11738088_a_at) / RFU OLFML3 (11715873_a_at) / Fold change /veh OLFML3 (11715873_a_at) / RFU LOC100653217 /// NTM (11731650_a_at) / Fold change /veh LOC100653217 /// NTM (11731650_a_at) / RFU MAPK11 (11762145_a_at) / Fold change /veh MAPK11 (11762145_a_at) / RFU FIZ1 (11724087_x_at) / Fold change /veh FIZ1 (11724087_x_at) / RFU OASL (11726364_x_at) / Fold change /veh OASL (11726364_x_at) / RFU SOX15 (11748057_x_at) / Fold change /veh SOX15 (11748057_x_at) / RFU CD79A (11719716_a_at) / Fold change /veh CD79A (11719716_a_at) / RFU HIST1H1D (11736915_at) / Fold change /veh HIST1H1D (11736915_at) / RFU CASKIN2 (11723855_a_at) / Fold change /veh CASKIN2 (11723855_a_at) / RFU LOC730098 (11760151_x_at) / Fold change /veh LOC730098 (11760151_x_at) / RFU OR4N2 (11742367_at) / Fold change /veh OR4N2 (11742367_at) / RFU PRRT2 (11749266_a_at) / Fold change /veh PRRT2 (11749266_a_at) / RFU SNX32 (11753110_a_at) / Fold change /veh SNX32 (11753110_a_at) / RFU CDHR5 (11726645_a_at) / Fold change /veh CDHR5 (11726645_a_at) / RFU RCAN1 (11760418_a_at) / Fold change /veh RCAN1 (11760418_a_at) / RFU FAM167A (11723789_a_at) / Fold change /veh FAM167A (11723789_a_at) / RFU FAM26E (11764081_at) / Fold change /veh FAM26E (11764081_at) / RFU ISYNA1 (11749810_s_at) / Fold change /veh ISYNA1 (11749810_s_at) / RFU ACY1 (11761880_at) / Fold change /veh ACY1 (11761880_at) / RFU 11764098_at / Fold change /veh 11764098_at / RFU SAMD14 (11745864_x_at) / Fold change /veh SAMD14 (11745864_x_at) / RFU NPB (11741838_a_at) / Fold change /veh NPB (11741838_a_at) / RFU TMPRSS6 (11731388_a_at) / Fold change /veh TMPRSS6 (11731388_a_at) / RFU KRTAP10-2 (11738614_at) / Fold change /veh KRTAP10-2 (11738614_at) / RFU ARHGAP8 /// PRR5-ARHGAP8 (11727945_x_at) / Fold change /veh ARHGAP8 /// PRR5-ARHGAP8 (11727945_x_at) / RFU KRTAP5-7 /// NADSYN1 (11734609_at) / Fold change /veh KRTAP5-7 /// NADSYN1 (11734609_at) / RFU RASL12 (11751679_a_at) / Fold change /veh RASL12 (11751679_a_at) / RFU CDKN2B (11736163_a_at) / Fold change /veh CDKN2B (11736163_a_at) / RFU PRF1 (11729649_at) / Fold change /veh PRF1 (11729649_at) / RFU, ZNF638 /// ZNF638-IT1 / Fold change vs veh, ZNF638 /// ZNF638-IT1 / RFU, PANK3 / Fold change vs veh, PANK3 / RFU, SH3YL1 / Fold change vs veh, SH3YL1 / RFU, ZEB2 / Fold change vs veh, ZEB2 / RFU, NRIP1 / Fold change vs veh, NRIP1 / RFU, PTTG1IP / Fold change vs veh, PTTG1IP / RFU, CAPN2 / Fold change vs veh, CAPN2 / RFU, MED14 / Fold change vs veh, MED14 / RFU, SNORA58 / Fold change vs veh, SNORA58 / RFU, C1orf63 / Fold change vs veh, C1orf63 / RFU, LRRFIP1 / Fold change vs veh, LRRFIP1 / RFU, NDUFAF7 / Fold change vs veh, NDUFAF7 / RFU, SLC12A2 / Fold change vs veh, SLC12A2 / RFU, IBTK / Fold change vs veh, IBTK / RFU, ESF1 / Fold change vs veh, ESF1 / Fold change vs veh, TMEM50B / RFU, TAOK1 / Fold change vs veh, TAOK1 / RFU, ACBD3 / Fold change vs veh, ACBD3 / RFU, TMA16 / Fold change vs veh, TMA16 / RFU, RWDD3 / Fold change vs veh, RWDD3 / RFU, BCAT1 / Fold change vs veh, BCAT1 / RFU, EDEM3 / Fold change vs veh, EDEM3 / RFU, TMEM33 / Fold change vs veh, TMEM33 / RFU, WDR75 / Fold change vs veh, WDR75 / RFU, AHCTF1 / Fold change vs veh, AHCTF1 / RFU, TFRC / Fold change vs veh, TFRC / RFU, ZDHHC17 / Fold change vs veh, ZDHHC17 / RFU, NOM1 / Fold change vs veh, NOM1 / RFU, ARL8B / Fold change vs veh, ARL8B / RFU, ZBTB11 / Fold change vs veh, ZBTB11 / RFU, TAMM41 / Fold change vs veh, TAMM41 / RFU, KIAA1704 /// LOC100996395 / Fold change vs veh, KIAA1704 /// LOC100996395 / RFU, ING1 / Fold change vs veh, ING1 / RFU, TRMT61B / Fold change vs veh, TRMT61B / RFU, FUBP3 / Fold change vs veh, FUBP3 / RFU, TP53 / Fold change vs veh, TP53 / RFU, TNKS2 / Fold change vs veh, TNKS2 / RFU, ZFP14 / Fold change vs veh, ZFP14 / RFU, ACTR2 / Fold change vs veh, ACTR2 / RFU, PPP3R1 / Fold change vs veh, PPP3R1 / RFU, PIK3R1 / Fold change vs veh, PIK3R1 / RFU, HNRNPA1 / Fold change vs veh, HNRNPA1 / RFU, RNF170 / Fold change vs veh, RNF170 / RFU, ZNF28 / Fold change vs veh, ZNF28 / RFU, RNGTT / Fold change vs veh, RNGTT / RFU, OGT / Fold change vs veh, OGT / RFU, BRD1 / Fold change vs veh, BRD1 / RFU, MARS / Fold change vs veh, MARS / RFU, ZNF655 / Fold change vs veh, ZNF655 / RFU, FAHD1 / Fold change vs veh, FAHD1 / RFU, BDP1 / Fold change vs veh, BDP1 / RFU, LRRCC1 / Fold change vs veh, LRRCC1 / RFU, ARID1A / Fold change vs veh, ARID1A / RFU, ZNF146 / Fold change vs veh, ZNF146 / RFU, ZNF330 / Fold change vs veh, ZNF330 / RFU, GPN3 / Fold change vs veh, GPN3 / RFU, C9orf123 / Fold change vs veh, C9orf123 / RFU, N4BP2L2 / Fold change vs veh, N4BP2L2 / RFU, ARFIP1 / Fold change vs veh, ARFIP1 / RFU, FAM179B / Fold change vs veh, FAM179B / RFU, BCL10 / Fold change vs veh, BCL10 / RFU, UHRF1BP1L / Fold change vs veh, UHRF1BP1L / RFU, BET1 / Fold change vs veh, BET1 / RFU, CNOT2 / Fold change vs veh, CNOT2 / RFU, ZNF268 / Fold change vs veh, ZNF268 / Fold change vs veh, ZNF507 / RFU, DGCR2 / Fold change vs veh, DGCR2 / RFU, WDSUB1 / Fold change vs veh, WDSUB1 / Fold change vs veh, HSP90B1 /// MIR3652 / RFU, ADSS / Fold change vs veh, ADSS / RFU, GK / Fold change vs veh, GK / RFU, ZNF148 / Fold change vs veh, ZNF148 / RFU, TAF9 / Fold change vs veh, TAF9 / RFU, SLC1A5 / Fold change vs veh, SLC1A5 / RFU, SLMO2 / Fold change vs veh, SLMO2 / RFU, ABCC4 / Fold change vs veh, ABCC4 / RFU, LOC101060439 /// RAP1B / Fold change vs veh, LOC101060439 /// RAP1B / RFU, RFX7 / Fold change vs veh, RFX7 / RFU, GTPBP10 / Fold change vs veh, GTPBP10 / RFU, CNEP1R1 / Fold change vs veh, CNEP1R1 / RFU, BIVM-ERCC5 /// ERCC5 / Fold change vs veh, BIVM-ERCC5 /// ERCC5 / RFU, ILF3 / Fold change vs veh, ILF3 / RFU 11762660_at / Fold change /veh 11762660_at / RFU VCAN (11757783_s_at) / Fold change /veh VCAN (11757783_s_at) / RFU DDX43 (11728927_at) / Fold change /veh DDX43 (11728927_at) / RFU KRT8 (11758188_x_at) / Fold change /veh KRT8 (11758188_x_at) / RFU NKD1 (11759106_at) / Fold change /veh NKD1 (11759106_at) / RFU SRD5A1 (11742802_a_at) / Fold change /veh SRD5A1 (11742802_a_at) / RFU TPSAB1 /// TPSB2 (11721975_s_at) / Fold change /veh TPSAB1 /// TPSB2 (11721975_s_at) / RFU GSTM3 (11746129_a_at) / Fold change /veh GSTM3 (11746129_a_at) / RFU IL23R (11737362_x_at) / Fold change /veh IL23R (11737362_x_at) / RFU TMEM51 (11727254_a_at) / Fold change /veh TMEM51 (11727254_a_at) / RFU PIWIL2 (11732686_x_at) / Fold change /veh PIWIL2 (11732686_x_at) / RFU ORM1 (11744905_x_at) / Fold change /veh ORM1 (11744905_x_at) / RFU CCDC152 (11743942_at) / Fold change /veh CCDC152 (11743942_at) / RFU ECM1 (11717891_a_at) / Fold change /veh ECM1 (11717891_a_at) / RFU IL23R (11748794_a_at) / Fold change /veh IL23R (11748794_a_at) / RFU TNFAIP8L3 (11732012_x_at) / Fold change /veh TNFAIP8L3 (11732012_x_at) / RFU MBOAT4 (11741988_at) / Fold change /veh MBOAT4 (11741988_at) / RFU 11764193_at / Fold change /veh 11764193_at / RFU TMEM53 (11763286_at) / Fold change /veh TMEM53 (11763286_at) / RFU MAGEB2 (11727129_at) / Fold change /veh MAGEB2 (11727129_at) / RFU TMEM200A (11744735_a_at) / Fold change /veh TMEM200A (11744735_a_at) / RFU CCDC152 (11751479_a_at) / Fold change /veh CCDC152 (11751479_a_at) / RFU FAM211A (11726209_a_at) / Fold change /veh FAM211A (11726209_a_at) / RFU RGS16 (11746705_a_at) / Fold change /veh RGS16 (11746705_a_at) / RFU VCAN (11755009_s_at) / Fold change /veh VCAN (11755009_s_at) / RFU RHOB (11743442_s_at) / Fold change /veh RHOB (11743442_s_at) / RFU RGS16 (11720943_a_at) / Fold change /veh RGS16 (11720943_a_at) / RFU RGS16 (11720944_at) / Fold change /veh RGS16 (11720944_at) / RFU, VPS4B / Fold change vs veh, VPS4B / RFU, CREB1 / Fold change vs veh, CREB1 / RFU, DNAJC13 / Fold change vs veh, DNAJC13 / RFU, GNAQ / Fold change vs veh, GNAQ / RFU, CDK5R1 / Fold change vs veh, CDK5R1 / RFU, ZRANB3 / Fold change vs veh, ZRANB3 / RFU, CUL4A / Fold change vs veh, CUL4A / RFU, CCNY / Fold change vs veh, CCNY / RFU, UFL1 / Fold change vs veh, UFL1 / RFU, COG3 / Fold change vs veh, COG3 / RFU, DIAPH2 / Fold change vs veh, DIAPH2 / RFU, SKA2 / Fold change vs veh, SKA2 / RFU, AFF3 / Fold change vs veh, AFF3 / RFU, LMF1 / Fold change vs veh, LMF1 / RFU, IPO11 / Fold change vs veh, IPO11 / RFU, DFFB / Fold change vs veh, DFFB / RFU, FOXP1 / Fold change vs veh, FOXP1 / RFU, CARD8 / Fold change vs veh, CARD8 / RFU, STRN3 / Fold change vs veh, STRN3 / RFU, ADK / Fold change vs veh, ADK / RFU, RASSF2 / Fold change vs veh, RASSF2 / RFU, WIPF1 / Fold change vs veh, WIPF1 / RFU, LARP1B / Fold change vs veh, LARP1B / RFU, RASA1 / Fold change vs veh, RASA1 / RFU, RB1 / Fold change vs veh, RB1 / RFU, PPFIA1 / Fold change vs veh, PPFIA1 / RFU, MAT2A / Fold change vs veh, MAT2A / RFU, CCT5 / Fold change vs veh, CCT5 / RFU, WDR92 / Fold change vs veh, WDR92 / RFU, CUX1 / Fold change vs veh, CUX1 / RFU, TTC7A / Fold change vs veh, TTC7A / RFU, TMEM135 / Fold change vs veh, TMEM135 / RFU, DEPTOR / Fold change vs veh, DEPTOR / RFU, CPM / Fold change vs veh, CPM / RFU, DNAJB6 / Fold change vs veh, DNAJB6 / RFU, CACNA2D3 / Fold change vs veh, CACNA2D3 / RFU, DTX4 / Fold change vs veh, DTX4 / RFU, TFCP2 / Fold change vs veh, TFCP2 / RFU, GMCL1 /// GMCL1P1 / Fold change vs veh, GMCL1 /// GMCL1P1 / RFU, AEBP2 / Fold change vs veh, AEBP2 / RFU, SNHG1 /// SNORD22 /// SNORD25 /// SNORD26 /// SNORD27 /// SNORD28 /// SNORD29 /// SNORD31 / Fold change vs veh, SNHG1 /// SNORD22 /// SNORD25 /// SNORD26 /// SNORD27 /// SNORD28 /// SNORD29 /// SNORD31 / Fold change (Aza/veh), C12orf56 (ProbeSet 11735607_a_at) / Fold change (ACY-1035/veh), C12orf56 (ProbeSet 11735607_a_at) / Fold change (Aza/veh), FGFR1OP (ProbeSet 11751329_s_at) / Fold change (ACY-1035/veh), FGFR1OP (ProbeSet 11751329_s_at) / Fold change (Aza/veh), VPS36 (ProbeSet 11739960_a_at) / Fold change (ACY-1035/veh), VPS36 (ProbeSet 11739960_a_at) / RFU SYPL1 (11715823_x_at) / Fold change /veh SYPL1 (11715823_x_at) / RFU IGFBP7 (11715501_s_at) / Fold change /veh IGFBP7 (11715501_s_at) / RFU REEP3 (11722064_at) / Fold change /veh REEP3 (11722064_at) / RFU IGLL1 (11728026_x_at) / Fold change /veh IGLL1 (11728026_x_at): dose or concentration left out as unconfirmed
Settings: MV-4-11 cells, 48 hours

Q: With `Nc1ccc(-c2cccs2)cc1NC(=O)c1ccc2c(c1)cc(C1CC1)n2CCN1CCOCC1` [ACY-1035] as the molecule, how does the “RFU PRF1 (11729649_at)” value read?
A: 18.67 RFU
